According to PubChem BioAssay AID1963427 (Molecular Pharmacology Branch, DTP, NCI, 2024):

Test system: 317291-083-R-J1-PDC complex spheroid growth
Test: Anticancer human tumor 317291-083-R-J1-PDC patient-derived soft tissue sarcoma cell line growth inhibition [Asc]
Details: for IC50: curve of first compound; for viability, T/C: stronger effect = lower value
Description: Multicellular complex tumor spheroid response to apoptosis pathway targeting inhibitors Alrizomadlin, Pelcitoclax, and Dasminapant in combination with a variety of drugs and investigational agents in selected tumor cell lines
The MDM2 inhibitor alrizomadlin, the Bcl-2/Bcl-xL inhibitor pelcitoclax, and the IAPs inhibitor dasminapant were evaluated both individually and in combination with standard of care and investigational anticancer small molecules within a complex spheroid model of solid tumors. . Complex spheroids include a stromal component modeled by human endothelial cells (HUVEC) and fibroblasts modeled by human mesenchymal stem cells (MSCs). The concentration ranges selected for each drug and investigational agent were based upon clinically achievable concentrations if the clinical Cmax of the agent was known.
Compounds. The drugs and investigational agents: alrizomadlin (APG-115; NSC831270), pelcitoclax (APG-1252; NSC835773), dasminapant (APG-1387;NSC834197), TAK-243 (NSC785004), copanlisib (NSC809693), olaparib (NSC753686), talazoparib (NSC767125), cobimetinib (NSC 768068), eltanexor (KPT-8602, NSC 794443), abemaciclib (NSC 768073), sotorasib (NSC818433), adagrasib (NSC 831453), MRTX-1133 (NSC 836407), Iadademestat (ORY1001, NSC 806812), and RMC-4630 (NSC839698), were obtained from the NCI Developmental Therapeutics Program Chemical Repository. The FDA-approved anticancer drug set is available from the Developmental Therapeutics Program at https://dtp.cancer.gov/organization/dscb/obtaining/available plates.htm. […] The stock solutions were prepared in dimethyl sulfoxide (DMSO, Sigma-Aldrich, St. Louis, MO, cat. D2650) at 800-fold the tested concentration and stored at -70 degrees C prior to their use. All drugs and investigational agents were tested over a range starting from a high concentration at or near the clinical Cmax and decreasing in half-log increments. If the clinical Cmax for an agent had not been determined, the highest concentration tested was 10 microM.
The patient-derived cancer (PDC) cell lines include five colon adenocarcinomas: 186277-243-T-J2-PDC, 616215-338-R-J1-PDC, 439559-082-T-J2-PDC, 463943-066-T-J2-PDC, and 519858-162-T-J1-PDC; three pancreatic carcinomas: 323965-272-R-J2-PDC, 521955-158-R6-J3-PDC, and 521955-158-R2-J5-PDC; two uterine sarcomas: 327498-152-R-J2-PDC and 993429-296-R-J1-PDC; two rhabdomyosarcomas: 755483-174-R-J1-PDC and 772245-204-R-J1-PDC; two soft tissue sarcomas: 126254-015-R-J1-PDC and 494315-158-R-J1-PDC; two malignant fibrous histiocytomas: 317291-083-R-J1-PDC and 596521-263-R-J1-PDC; two breast carcinomas: 171881-019-R-J1-PDC and 885512-296-R-J2-PDC; and one ovarian carcinoma: 6556581-035-R-J-PDC were obtained from the NCI PDMR, (https://pdmr.cancer.gov). The established cell lines HSSY-2 synovial sarcoma (RRID:CVCL 8719), SYO-1 synovial sarcoma (RRID:CVCL_7146), MPNST malignant peripheral neural sheath tumor were obtained from the Sloan Kettering Institute. The following established cell lines were purchased from the American Type Culture Collection (ATCC, Manassas, VA), Sor the received from the NCI repository:, PANC-1 pancreatic carcinoma (CRL-1469, RRID:CVCL_0480), OVCAR-5 ovarian carcinoma (RRID:CVCL_1628), OVCAR-8 ovarian carcinoma (RRID:CVCL_1629), , MCF-7 breast carcinoma (CRL-12584, RRID:CVCL_0031), MDA-MB-231 breast carcinoma (CRL-12532, RRID:CVCL_0062), NCI-H1876 small cell lung carcinoma (CRL-5902, RRID:CVCL_1503), NCI-H510A small cell lung carcinoma (HTB-184, RRID:CVCL_1565), NCI-H1417 (CRL-5869, RRID:CVCL_1469), and NCI-H196 small cell lung carcinoma (CRL-5823, RRID:CVCL_1509). Dr. Peter Houghton (Greehey Children's Cancer Research Institute, University of Texas Health Science Center, San Antonio, TX) provided Rh-18 rhabdomyosarcoma (RRID:CVCL_1659). Pooled donor human umbilical vein endothelial cells (HUVEC, Lonza, cat. CC-2519) and human mesenchymal stem cells (hMSC, Lonza, cat. PT-2501) were purchased from Lonza (Walkersville, MD).
Cell Culture. […]
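Further: compound exposure lasted seven days after spheroids formed for three days.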
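Wherever viability, T/C is given: 100% = DMSO vehicle control wells.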

In the case of NC1CCC(NC2CC2c2ccccc2)CC1 (centres undefined) + CCN1C(C(=O)NC23CCC(C(=O)O)(CC2)CC3)C(c2cccc(Cl)c2F)C2(C(=O)Nc3cc(Cl)ccc32)C12CCCCC2, the IC50 (second compound 0.00949 µM) is reported as greater than 100 nM, the IC50 (second compound 0.03 µM) is reported as greater than 100 nM and the IC50 (second compound 0.0949 µM) is reported as greater than 100 nM. For the same compound, the IC50 (second compound 0.3 µM) was greater than 100 nM, the IC50 (second compound 0.949 µM) was greater than 100 nM and the IC50 (second compound 3 µM) was greater than 100 nM. The viability, T/C (second compound 0.00949 µM, first compound 0.000316 µM) was 92.4%, the viability, T/C (second compound 0.00949 µM, first compound 0.001 µM) was 103% and the viability, T/C (second compound 0.00949 µM, first compound 0.00316 µM) was 96.6%. For the same compound, the viability, T/C (second compound 0.00949 µM, first compound 0.01 µM) was 97%, the viability, T/C (second compound 0.00949 µM, first compound 0.0316 µM) was 95.5% and the viability, T/C (second compound 0.00949 µM, first compound 0.1 µM) was 94.2%. The viability, T/C (second compound 0.03 µM, first compound 0.000316 µM) was 109%, the viability, T/C (second compound 0.03 µM, first compound 0.001 µM) was 100% and the viability, T/C (second compound 0.03 µM, first compound 0.00316 µM) was 106%. The viability, T/C (second compound 0.03 µM, first compound 0.01 µM) was 114%, the viability, T/C (second compound 0.03 µM, first compound 0.0316 µM) was 107% and the viability, T/C (second compound 0.03 µM, first compound 0.1 µM) was 94.2%. The viability, T/C (second compound 0.0949 µM, first compound 0.000316 µM) was 103%, the viability, T/C (second compound 0.0949 µM, first compound 0.001 µM) was 81.3% and the viability, T/C (second compound 0.0949 µM, first compound 0.00316 µM) was 87.6%. The viability, T/C (second compound 0.0949 µM, first compound 0.01 µM) was 95.7%, the viability, T/C (second compound 0.0949 µM, first compound 0.0316 µM) was 106% and the viability, T/C (second compound 0.0949 µM, first compound 0.1 µM) was 108%. The viability, T/C (second compound 0.3 µM, first compound 0.000316 µM) was 116%, the viability, T/C (second compound 0.3 µM, first compound 0.001 µM) was 108% and the viability, T/C (second compound 0.3 µM, first compound 0.00316 µM) was 98.9%. The viability, T/C (second compound 0.3 µM, first compound 0.01 µM) was 80.3%, the viability, T/C (second compound 0.3 µM, first compound 0.0316 µM) was 102% and the viability, T/C (second compound 0.3 µM, first compound 0.1 µM) was 111%. The viability, T/C (second compound 0.949 µM, first compound 0.000316 µM) was 98.9%, the viability, T/C (second compound 0.949 µM, first compound 0.001 µM) was 120% and the viability, T/C (second compound 0.949 µM, first compound 0.00316 µM) was 76.2%. It also gave a viability, T/C (second compound 0.949 µM, first compound 0.01 µM) of 93.8%, a viability, T/C (second compound 0.949 µM, first compound 0.0316 µM) of 97.6% and a viability, T/C (second compound 0.949 µM, first compound 0.1 µM) of 106%. The viability, T/C (second compound 3 µM, first compound 0.000316 µM) was 99.7%, the viability, T/C (second compound 3 µM, first compound 0.001 µM) was 107% and the viability, T/C (second compound 3 µM, first compound 0.00316 µM) was 81.5%. For the same compound, the viability, T/C (second compound 3 µM, first compound 0.01 µM) was 74.2%, the viability, T/C (second compound 3 µM, first compound 0.0316 µM) was 83.6% and the viability, T/C (second compound 3 µM, first compound 0.1 µM) was 74.3%.
For NC(=O)C(=Cn1cnc(-c2cc(C(F)(F)F)cc(C(F)(F)F)c2)n1)c1cncnc1 + Cc1c(S(C)(=O)=O)c(-c2cc(F)cc(N3CCN(c4ccc(NS(=O)(=O)c5ccc(NC(CCN6CCC(C(=O)OCCCP(=O)(O)O)CC6)CSc6ccccc6)c(S(=O)(=O)C(F)(F)F)c5)cc4)CC3)c2)c(-c2ccc(Cl)cc2)n1C(C)C, the IC50 (second compound 0.0316 µM) was 19.5 nM, the IC50 (second compound 0.1 µM) was 26.3 nM and the IC50 (second compound 0.316 µM) was 15.5 nM. It also gave an IC50 (second compound 1 µM) of 17.8 nM, an IC50 (second compound 3.16 µM) of 14.4 nM and an IC50 (second compound 10 µM) of 24.2 nM. The viability, T/C (second compound 0.0316 µM, first compound 0.000949 µM) was 105%, the viability, T/C (second compound 0.0316 µM, first compound 0.003 µM) was 73.8% and the viability, T/C (second compound 0.0316 µM, first compound 0.00949 µM) was 71.2%. It also gave a viability, T/C (second compound 0.0316 µM, first compound 0.03 µM) of 47.7%, a viability, T/C (second compound 0.0316 µM, first compound 0.0949 µM) of 3.73% and a viability, T/C (second compound 0.0316 µM, first compound 0.3 µM) of 1.57%. For the same compound, the viability, T/C (second compound 0.1 µM, first compound 0.000949 µM) was 98.8%, the viability, T/C (second compound 0.1 µM, first compound 0.003 µM) was 94.7% and the viability, T/C (second compound 0.1 µM, first compound 0.00949 µM) was 72.6%. It also gave a viability, T/C (second compound 0.1 µM, first compound 0.03 µM) of 53.8%, a viability, T/C (second compound 0.1 µM, first compound 0.0949 µM) of 4.66% and a viability, T/C (second compound 0.1 µM, first compound 0.3 µM) of 0.74%. For the same compound, the viability, T/C (second compound 0.316 µM, first compound 0.000949 µM) was 99.6%, the viability, T/C (second compound 0.316 µM, first compound 0.003 µM) was 114% and the viability, T/C (second compound 0.316 µM, first compound 0.00949 µM) was 59.6%. It also gave a viability, T/C (second compound 0.316 µM, first compound 0.03 µM) of 31.9%, a viability, T/C (second compound 0.316 µM, first compound 0.0949 µM) of 1.71% and a viability, T/C (second compound 0.316 µM, first compound 0.3 µM) of 0.54%. For the same compound, the viability, T/C (second compound 1 µM, first compound 0.000949 µM) was 89.3%, the viability, T/C (second compound 1 µM, first compound 0.003 µM) was 88.8% and the viability, T/C (second compound 1 µM, first compound 0.00949 µM) was 69.8%. The viability, T/C (second compound 1 µM, first compound 0.03 µM) was 33.5%, the viability, T/C (second compound 1 µM, first compound 0.0949 µM) was 5.89% and the viability, T/C (second compound 1 µM, first compound 0.3 µM) was 0.53%. For the same compound, the viability, T/C (second compound 3.16 µM, first compound 0.000949 µM) was 74.7%, the viability, T/C (second compound 3.16 µM, first compound 0.003 µM) was 76.1% and the viability, T/C (second compound 3.16 µM, first compound 0.00949 µM) was 59.4%. For the same compound, the viability, T/C (second compound 3.16 µM, first compound 0.03 µM) was 31.6%, the viability, T/C (second compound 3.16 µM, first compound 0.0949 µM) was 2.57% and the viability, T/C (second compound 3.16 µM, first compound 0.3 µM) was 0.29%. For the same compound, the viability, T/C (second compound 10 µM, first compound 0.000949 µM) was 105%, the viability, T/C (second compound 10 µM, first compound 0.003 µM) was 118% and the viability, T/C (second compound 10 µM, first compound 0.00949 µM) was 84.4%. The viability, T/C (second compound 10 µM, first compound 0.03 µM) was 44.5%, the viability, T/C (second compound 10 µM, first compound 0.0949 µM) was 1.64% and the viability, T/C (second compound 10 µM, first compound 0.3 µM) was 0.33%.
